Test results published in paper PMC8373216, “Development and Preclinical Evaluation of New Inhaled Lipoglycopeptides for the Treatment of Persistent Pulmonary Methicillin-Resistant Staphylococcus aureus Infections” (Antimicrobial Agents and Chemotherapy, 2021).
Where two headings read alike, the source gives them in different places.

Columns and labels:
[1] = system: Staphylococcus epidermidis; experiment: Expanded panel broth microdilution MIC/MBC; type: cell-based; conditions: for MIC: Staphylococcus epidermidis
[2] = system: Staphylococcus haemolyticus; experiment: Expanded panel broth microdilution MIC; type: cell-based
Staphylococcus hominis = experiment: Expanded panel broth microdilution MIC; type: cell-based
Enterococcus faecalis = experiment: Expanded panel broth microdilution MIC/MBC; type: cell-based
Streptococcus pneumoniae = experiment: Expanded panel broth microdilution MIC/MBC; type: cell-based
Streptococcus pyogenes = experiment: Expanded panel broth microdilution MIC/MBC; type: cell-based; conditions: for MIC: Streptococcus pyogenes
[3] = system: Streptococcus constellatus; experiment: Expanded panel broth microdilution MIC; type: cell-based
Streptococcus mitis = experiment: Expanded panel broth microdilution MIC/MBC; type: cell-based; conditions: for MIC: Streptococcus mitis
Streptococcus oralis = experiment: Expanded panel broth microdilution MIC; type: cell-based
Clostridioides difficile = experiment: Expanded panel broth microdilution MIC; type: cell-based
[4] = system: Peptostreptococcus anaerobius; experiment: Expanded panel broth microdilution MIC; type: cell-based
[5] = system: MRSA (ATCC BAA 1556; USA300); experiment: Acute pulmonary MRSA infection in neutropenic rats, nebulized nose-only inhalation; type: in vivo, Staphylococcus aureus; conditions: inhaled at 24 and 32 h postinfection, lungs at 48 h, RV40 14.4 mg/kg, RV94 18.8 mg/kg delivered
Method: Rats were rendered neutropenic with intraperitoneal (i.p.) cyclophosphamide on day −4 (150 mg/kg) and day −1 (100 mg/kg) relative to the challenge. On day 0 at 0 h, rats were challenged with MRSA via intranasal instillation at a target titer of 8.0 to 8.3 log10 CFU. At 24 and 32 h postchallenge, rats were loaded into a 12-port inhalation dosing tower, where they received nebulized drug or vehicle control treatments by nose-only inhalation. Animals were euthanized at 48 h postinfection for enumeration of lung MRSA titer. MRSA lung titer of test article treatments versus control is plotted for three separate experiments. […] Statistics are based on the Kolmogorov-Smirnov test for drug treatment versus control (RV94, P = 0.01). LOD = 2.1 log10 CFU/lungset.
Male Sprague Dawley rats (Envigo, Indianapolis, IN) weighing between 225 and 250 g were used in these studies. Rats were housed and acclimated to the study facility as described in the PK methods section. Rats were rendered neutropenic through a series of intraperitoneal cyclophosphamide (Sigma-Aldrich) injections on day −4 (150 mg/kg) and day −1 (100 mg/kg) relative to the challenge. On day 0 at 0 h, rats were challenged with MRSA ATCC BAA 1556 via intranasal instillation at a target titer of 8.0 to 8.3 log10 CFU using optical density and back-counting inoculum CFU. To prepare the inoculum, a frozen aliquot of the organism stored at −80°C was thawed, transferred into TSB, and incubated at 37°C while shaking for 16 h. Cultures were then centrifuged at 2,000 × g for 5 min, and the resulting pellet was resuspended in PBS and equilibrated. For the challenge procedure, rats were first anesthetized through use of 2 to 5% isoflurane in 100% oxygen, then restrained with a scruff grip and a total of 200 μl of inoculum was quickly introduced to one nare. The rat was held in a vertical position until the challenge was fully inhaled. Rats were monitored following challenge to ensure that normal respiration was achieved and then returned to their cage. […] At necropsy, whole lungs were aseptically removed and lung weights were recorded. […]

S. aureus = experiment: Expanded panel broth microdilution MIC/MBC; conditions: for MIC: Staphylococcus aureus

CCCCCCCCCCNC(=O)CNC1(C)CC(OC2C(Oc3c4cc5cc3Oc3ccc(cc3Cl)C(O)C3NC(=O)C(NC(=O)C5NC(=O)C(CC(N)=O)NC(=O)C(NC(=O)C(CC(C)C)NC)C(O)c5ccc(c(Cl)c5)O4)c4ccc(O)c(c4)-c4c(O)cc(O)cc4C(C(=O)O)NC3=O)OC(CO)C(O)C2O)OC(C)C1O (stereo not shown) [RV94]
0.03 mg/L: MIC ([1]; MRSE, S. epidermidis MMX 762, MRSE, read-out: MIC) | MIC ([1]; MRSE, S. epidermidis MRSE, 2 isolates, read-out: MIC (median)) | MIC (Staphylococcus hominis; ATCC27844, S. hominis ATCC 27844, read-out: MIC) | MIC (Staphylococcus hominis; S. hominis, 1 isolate, read-out: MIC) | MIC (Enterococcus faecalis; E. faecalis VanA VRE, 1 isolate) | MIC (Enterococcus faecalis; Enterococcus faecalis, ATCC29212, E. faecalis ATCC 29212, VSE, read-out: MIC) | MIC (Enterococcus faecalis; Enterococcus faecalis, E. faecalis MMX 1086, VanA VRE, read-out: MIC) | MIC (Enterococcus faecalis; Enterococcus faecalis, E. faecalis MMX 4176, VSE, read-out: MIC) | MIC (Enterococcus faecalis; Enterococcus faecalis, E. faecalis VSE, 2 isolates, read-out: MIC (median)) | MIC (S. aureus; ATCC13709 / MSSA, S. aureus ATCC 13709, MSSA) | MIC (S. aureus; ATCCBAA1556|MRSA|USA300, S. aureus ATCC BAA-1556, MRSA, USA300 (expanded panel)) | MIC (S. aureus; MRSA, S. aureus MMX 7902, MRSA) | MIC (S. aureus; MSSA, S. aureus MMX 7907, MSSA) | MIC (S. aureus; NRS2, S. aureus NRS2, hVISA;Mu3)
>8: MIC:MBC (Enterococcus faecalis; E. faecalis VSE, MBC on one organism) | MIC:MBC (Enterococcus faecalis; E. faecalis VanA VRE)
1: MIC:MBC ([1]; S. epidermidis MRSE, MBC on one organism) | MIC:MBC (Streptococcus pyogenes; S. pyogenes ermR) | MIC:MBC (Streptococcus mitis; S. mitis MGS, MBC on one organism) | MIC:MBC (S. aureus; S. aureus MRSA, MBC median of n = 5)
1.0 log10 CFU: Average reduction in lung MRSA titer versus vehicle control [5]
4: MIC:MBC (Streptococcus pneumoniae; S. pneumoniae PISP, MBC on one organism)
2: MIC:MBC (S. aureus; S. aureus VISA, MBC median of n = 2)
0.25 mg/L: MIC (S. aureus; NRS1 / VISA, S. aureus NRS1, VISA, Mu50)
0.008 mg/L: MIC (Streptococcus pneumoniae; S. pneumoniae PRSP, 1 isolate) | MIC (Streptococcus pneumoniae; Streptococcus pneumoniae, ATCC49619, S. pneumoniae ATCC 49619, PISP, read-out: MIC) | MIC (Streptococcus pneumoniae; Streptococcus pneumoniae, S. pneumoniae MMX 432, PRSP, read-out: MIC) | MIC (Streptococcus pyogenes; S. pyogenes MMX 946, ermR, read-out: MIC) | MIC (Streptococcus pyogenes; S. pyogenes MMX 8778, read-out: MIC) | MIC (Streptococcus pyogenes; S. pyogenes ermR, 1 isolate, read-out: MIC) | MIC ([3]; S. constellatus AGS, 1 isolate) | MIC ([3]; Streptococcus constellatus, S. constellatus (AGS) MMX 5677, read-out: MIC) | MIC (Streptococcus mitis; ATCC49456, S. mitis (MGS) ATCC 49456, read-out: MIC) | MIC (Streptococcus mitis; S. mitis (MGS) MMX 5798, read-out: MIC) | MIC (Streptococcus mitis; S. mitis MGS, 2 isolates, read-out: MIC (median)) | MIC ([4]; ATCC27337, P. anaerobius ATCC 27337, read-out: MIC) | MIC ([4]; P. anaerobius, 1 isolate, read-out: MIC)
3 fold: MIC, fold activity reduction compared to RV40 (S. aureus; hVISA)
0.006 mg/L: MIC (Streptococcus pneumoniae; Streptococcus pneumoniae, S. pneumoniae PISP, 2 isolates, read-out: MIC (median))
4 mg/L: MIC (S. aureus; VRSA, read-out: MIC (median), S. aureus VRSA, 12 isolates (JMI Laboratories))
30 fold: MIC, fold enhancement in comparison to vancomycin (S. aureus; VISA)
0.12 mg/L: MIC (S. aureus; NRS13 / VISA, S. aureus NRS13, VISA) | MIC (S. aureus; NRS22 / VISA, S. aureus NRS22, VISA) | MIC (S. aureus; NRS23, S. aureus NRS23, hVISA) | MIC (S. aureus; VISA, read-out: MIC (median), S. aureus VISA, 5 isolates)
0.012 mg/L: MIC (Streptococcus pyogenes; S. pyogenes, 2 isolates, read-out: MIC (median))
18 fold: MIC, fold enhancement in comparison to vancomycin (S. aureus; hVISA)
8: MIC:MBC (S. aureus; S. aureus MSSA, MBC on one organism) | MIC:MBC (S. aureus; S. aureus hVISA, MBC on one organism)
0.023 mg/L: MIC (S. aureus; MSSA, read-out: MIC (median), S. aureus MSSA, 4 isolates)
0.004 mg/L: MIC (Streptococcus pneumoniae; Streptococcus pneumoniae, S. pneumoniae MMX 747, PISP, read-out: MIC)
0.08 mg/L: MIC (S. aureus; read-out: MIC (median), S. aureus hVISA, 2 isolates)
0.06 mg/L: MIC ([2]; ATCC29970, S. haemolyticus ATCC 29970, read-out: MIC) | MIC ([2]; S. haemolyticus, 1 isolate, read-out: MIC) | MIC (Clostridioides difficile; ATCCBAA1870, C. difficile ATCC BAA-1870, NAP1;ribo 027, read-out: MIC) | MIC (Clostridioides difficile; C. difficile NAP1;ribo 027, 1 isolate, read-out: MIC) | MIC (S. aureus; NRS4 / VISA, S. aureus NRS4, VISA) | MIC (S. aureus; NRS52 / VISA, S. aureus NRS52, VISA)
2 fold: MIC, fold activity reduction compared to RV40 (S. aureus; VISA) | MIC, fold enhancement compared to telavancin (S. aureus; hVISA and VISA (both strains))
0.015 mg/L: MIC ([1]; ATCC49134, S. epidermidis ATCC 49134, MSSE, read-out: MIC) | MIC ([1]; MRSE, S. epidermidis MMX 5145, MRSE, read-out: MIC) | MIC ([1]; S. epidermidis MSSE, 1 isolate, read-out: MIC) | MIC (Streptococcus pyogenes; ATCC19615, S. pyogenes ATCC 19615, read-out: MIC) | MIC (Streptococcus oralis; S. oralis MGS, 1 isolate) | MIC (Streptococcus oralis; Streptococcus oralis, S. oralis (MGS) MMX 5821, read-out: MIC) | MIC (Clostridioides difficile; ATCCBAA1805, C. difficile ATCC BAA-1805, ribo 027, read-out: MIC) | MIC (Clostridioides difficile; C. difficile ATTC 700057, toxAB-, read-out: MIC) | MIC (Clostridioides difficile; C. difficile ribo 027, 1 isolate, read-out: MIC) | MIC (Clostridioides difficile; C. difficile toxAB-, 1 isolate, read-out: MIC) | MIC (S. aureus; ATCC29213 / MSSA, S. aureus ATCC 29213, MSSA) | MIC (S. aureus; ATCC43300 / MRSA, S. aureus ATCC 43300, MRSA) | MIC (S. aureus; ATCCBAA1756|MRSA|NRS384|USA300, S. aureus NRS 384, ATCC BAA-1756, MRSA, USA300) | MIC (S. aureus; MRSA / NRS123 / USA400, S. aureus NRS123, MRSA, USA400) | MIC (S. aureus; MRSA / NRS725 / USA300, S. aureus NRS725, MRSA, USA300) | MIC (S. aureus; MRSA / USA300, S. aureus MMX 3982, MRSA, USA300) | MIC (S. aureus; MRSA, S. aureus MMX 7899, MRSA) | MIC (S. aureus; MRSA, S. aureus MMX 7900, MRSA) | MIC (S. aureus; MRSA, S. aureus MMX 7901, MRSA) | MIC (S. aureus; MRSA, S. aureus MMX 7903, MRSA) | MIC (S. aureus; MRSA, read-out: MIC (median), S. aureus MRSA, 12 isolates) | MIC (S. aureus; MSSA, S. aureus MMX 7908, MSSA)
